Columns and labels:
[1] = In vitro cytotoxicity assay (MTT cell viability) in HepG2 cells; assay type: cell-based, human; conditions: human
Method in brief: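 Read-out: MTT formazan absorbance at 492 nm, expressed as % of vehicle signal; CC50 by 4-parameter non-linear regression. Parental HepG2, 20,000 cells/well, treated 7 days with compound from 30 μM down to 1.0 nM.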

[2] = test system: HBV replication in HepAD38 cells; test: Anti-HBV replication assay in HepAD38 cells (QPCR of extracellular HBV DNA); assay type: cell-based, HBV (genotype D, serotype ayw); conditions: Hepatitis B virus, 168 h, 7 days incubation, extracellular HBV DNA by QPCR, read-out: Anti-HBV EC50
Method in brief: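 Tet-off HepAD38, 7-day compound exposure ([…], 1 log10 steps, DMSO vehicle), 37 °C. Extracellular HBV DNA by QPCR, copies/mL via standard curve, % inhibition vs vehicle, EC50 by 4-parameter regression. Entecavir as positive control.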

| SMILES | CC50 at 7 days [1] | EC50 [2] |
| --- | --- | --- |
| Cc1noc([C@@H](C)NC(=O)C(=O)c2cc(C(=O)Nc3ccc(F)c(C)c3)c3n2CCCC3)n1 [Example 431, (R)-N-(4-fluoro-3-methylphenyl)-3-(2-((1-(3-methyl-1,2,4-oxadiazol-5-yl)ethyl)amino)-2-oxoacetyl)-5,6,7,8-tetrahydroindolizine-1-carboxamide] | > 30000 nM | 50 to 499 nM |
| Cc1cc(NC(=O)c2c(C)c(C(=O)C(=O)NC3(CO)CCCCC3)n(C)c2C)ccc1F [Example 599, N-(4-fluoro-3-methylphenyl)-5-(2-((1-(hydroxymethyl)cyclohexyl)amino)-2-oxoacetyl)-1,2,4-trimethyl-1H-pyrrole-3-carboxamide] | > 30000 nM | < 50 nM |
| Cc1cc(NC(=O)c2c(C)c(C(=O)C(=O)NCCn3ccnc3)n(C)c2C)ccc1F [Example 346, 5-(2-((2-(1H-imidazol-1-yl)ethyl)amino)-2-oxoacetyl)-N-(4-fluoro-3-methylphenyl)-1,2,4-trimethyl-1H-pyrrole-3-carboxamide] | > 30000 nM | < 50 nM |
| Cc1cc(NC(=O)c2c(C)c(C(=O)C(=O)N[C@@H]3CC[C@H](O)[C@@H]3O)n(C)c2C)ccc1F [Example 152, 5-(2-(((1R,2R,3S)-2,3-dihydroxycyclopentyl)amino)-2-oxoacetyl)-N-(4-fluoro-3-methylphenyl)-1,2,4-trimethyl-1H-pyrrole-3-carboxamide] | > 30000 nM | < 50 nM |
| CCn1c(C)c(C(=O)Nc2ccc(F)c(C)c2)c(C)c1C(=O)C(=O)NC(C)(C)C [Example 96, 5-(2-(tert-butylamino)-2-oxoacetyl)-1-ethyl-N-(4-fluoro-3-methylphenyl)-2,4-dimethyl-1H-pyrrole-3-carboxamide] | > 30000 nM | < 50 nM |
| Cc1cc(NC(=O)c2c(C)c(C(=O)C(=O)NC3CCN(C4CCSCC4)CC3)n(C)c2C)ccc1F [Example 654, N-(4-fluoro-3-methylphenyl)-1,2,4-trimethyl-5-(2-oxo-2-((1-(tetrahydro-2H-thiopyran-4-yl)piperidin-4-yl)amino)acetyl)-1H-pyrrole-3-carboxamide] | > 30000 nM | < 50 nM |
| Cc1cc(NC(=O)c2c(C)c(C(=O)C(=O)NC3C(=O)NCC3(C)C)n(C)c2C)ccc1F (stereo not shown) [Example 679, 5-(2-((4,4-dimethyl-2-oxopyrrolidin-3-yl)amino)-2-oxoacetyl)-N-(4-fluoro-3-methylphenyl)-1,2,4-trimethyl-1H-pyrrole-3-carboxamide] | > 30000 nM | < 50 nM |
| Cc1noc([C@@H](NC(=O)C(=O)c2c(Cl)c(C(=O)Nc3ccc(F)c(C)c3)c3n2CCC3)C(C)C)n1 [Example 543, (S)-6-chloro-N-(4-fluoro-3-methylphenyl)-5-(2-((2-methyl-1-(3-methyl-1,2,4-oxadiazol-5-yl)propyl)amino)-2-oxoacetyl)-2,3-dihydro-1H-pyrrolizine-7-carboxamide] | > 30000 nM | < 50 nM |
| Cc1cc(NC(=O)c2c(C)c(C(=O)C(=O)N[C@H]3CC[C@@H](O)CC3)n(C)c2C)cc(Cl)n1 [Example 628, N-(2-chloro-6-methylpyridin-4-yl)-5-(2-(((1s,4s)-4-hydroxycyclohexyl)amino)-2-oxoacetyl)-1,2,4-trimethyl-1H-pyrrole-3-carboxamide] | > 30000 nM | < 50 nM |
| O=C(NC1(CO)CC1)C(=O)c1c(Cl)c(C(=O)Nc2ccc(F)c(F)c2)c2n1CCC2 [Example 561, 6-chloro-N-(3,4-difluorohphenyl)-5-(2-((1-(hydroxymethyl)cyclopropyl)amino)-2-oxoacetyl)-2,3-dihydro-1H-pyrrolizine-7-carboxamide] | > 30000 nM | < 50 nM |
| Cc1cc(NC(=O)c2c(C)c(C(=O)C(=O)N[C@H](C(=O)O)C3CCCCC3)n(C)c2C)ccc1F [Example 68, (S)-2-cyclohexyl-2-(2-(4-((4-fluoro-3-methylphenyl)carbamoyl)-1,3,5-trimethyl-1H-pyrrol-2-yl)-2-oxoacetamido)acetic acid] | > 30000 nM | > 1000 nM |

From patent US20190375708A1 (VenatoRx Pharmaceuticals, Inc., priority 2018, published 2019)
